{"source": "patent US11041859B2", "about": "“Methods of identifying SENP1 inhibitors” (priority 2013, dated 2021)", "system": "HeLa cells", "assay": "Accumulation of SUMOylated proteins in HeLa cells (Western blot, 48 hours)", "format": "cell-based", "data": [{"smiles": "Nc1ccc2ccccc2c1/N=N/c1ccc(/C=C/c2ccc(/N=N/c3c(N)ccc4ccccc34)cc2S(=O)(=O)O)c(S(=O)(=O)O)c1", "note": "[SPI-01]", "values": [{"measurement": "accumulation of SUMO-1 conjugates in cells", "value": "less significant effects"}, {"measurement": "accumulation of SUMO-2/3 conjugates in cells", "setting": "increasing concentrations", "value": "accumulation correlated with inhibitor concentration"}]}]}
